Reference: patent publication US9738634B2, “Heterocyclic amide compound and herbicide” (SYNGENTA PARTICIPATIONS AG, priority 2013, dated 2017)

Experiments:
Type in all cases: in vivo
fig-leafed goosefoot [1] = assay: Test Example 3: weedkilling efficacy through soil treatment; M: fig-leafed goosefoot; conditions: treatment dosage 315 g/ha
Method in brief: (§1)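 Crop and weed responses were judged three weeks after a uniform surface spray of the water-diluted emulsion at the given g/ha rate. Seeds sat beneath about 1.5 cm of sterilized diluvial soil, and boxes stood in a greenhouse at 25 to 30° C.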

chickweed [2] = assay: Test Example 4: weedkilling efficacy by foliar treatment; N: chickweed; conditions: treatment dosage 315 g/ha
Method in brief: (§2)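 Seeds are spot-sown into sterilized diluvial soil and covered with about 1.5 cm of soil. After 14 days' greenhouse growth at 25 to 30° C, plants are sprayed on stems and leaves with diluted emulsion at the stated g/ha rate, then scored at 3 weeks.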

redroot pigweed [3] = assay: Test Example 3: weedkilling efficacy through soil treatment; L: redroot pigweed; conditions: treatment dosage 315 g/ha
Method in brief: as §1

oval-leafed pondweed [4] = assay: Test Example 2: weedkilling efficacy, growth period weed treatment in the submerged state; C: oval-leafed pondweed; conditions: treatment dosage 252 g/ha
Method in brief: (§3)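 Weeds treated at the 1-2 leaf stage by application of diluted emulsion onto floodwater (4 cm depth, alluvial soil) at specified g/ha. Grown in greenhouse at 25 to 30° C; herbicidal effect rated three weeks after treatment.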

wild oat [5] = assay: Test Example 4: weedkilling efficacy by foliar treatment; G: wild oat; conditions: treatment dosage 315 g/ha
Method in brief: as §2

directly sown rice [6] = assay: Test Example 3: soil treatment, effect on crop; b: directly sown rice; conditions: treatment dosage 315 g/ha
Method in brief: as §1

green foxtail [7] = assay: Test Example 4: weedkilling efficacy by foliar treatment; E: green foxtail; conditions: treatment dosage 315 g/ha
Method in brief: as §2

transplanted rice = assay: Test Example 1: preemergent weed treatment in the submerged state, effect on crop; a: transplanted rice; conditions: treatment dosage 252 g/ha
Method in brief: (§4)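 Pots of alluvial soil were flooded to a 4 cm depth. Mixed weed seeds were sown and 2.5 leaf-stage rice seedlings transplanted. On sowing day, water-diluted emulsion was applied to the water surface (dose in g/ha). After 3 weeks at 25–30 °C, effects were rated.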

bulrush [8] = assay: Test Example 1: weedkilling efficacy, preemergent weed treatment in the submerged state; B: bulrush; conditions: treatment dosage 252 g/ha
Method in brief: as §4

corn [9] = assay: Test Example 4: foliar treatment, effect on crop; c: corn; conditions: treatment dosage 315 g/ha
Method in brief: as §2

directly sown rice [10] = assay: Test Example 4: foliar treatment, effect on crop; b: directly sown rice; conditions: treatment dosage 315 g/ha
Method in brief: as §2

Italian ryegrass [11] = assay: Test Example 4: weedkilling efficacy by foliar treatment; I: Italian ryegrass; conditions: treatment dosage 315 g/ha
Method in brief: as §2

crabgrass [12] = assay: Test Example 4: weedkilling efficacy by foliar treatment; D: crabgrass; conditions: treatment dosage 315 g/ha
Method in brief: as §2

corn [13] = assay: Test Example 3: soil treatment, effect on crop; c: corn; conditions: treatment dosage 315 g/ha
Method in brief: as §1

redroot pigweed [14] = assay: Test Example 4: weedkilling efficacy by foliar treatment; L: redroot pigweed; conditions: treatment dosage 315 g/ha
Method in brief: as §2

green foxtail [15] = assay: Test Example 3: weedkilling efficacy through soil treatment; E: green foxtail; conditions: treatment dosage 315 g/ha
Method in brief: as §1

bulrush [16] = assay: Test Example 2: weedkilling efficacy, growth period weed treatment in the submerged state; B: bulrush; conditions: treatment dosage 252 g/ha
Method in brief: as §3

crabgrass [17] = assay: Test Example 3: weedkilling efficacy through soil treatment; D: crabgrass; conditions: treatment dosage 315 g/ha
Method in brief: as §1

birds-eye speedwell [18] = assay: Test Example 3: weedkilling efficacy through soil treatment; p: birds-eye speedwell; conditions: treatment dosage 315 g/ha
Method in brief: as §1

oval-leafed pondweed [19] = assay: Test Example 1: weedkilling efficacy, preemergent weed treatment in the submerged state; C: oval-leafed pondweed; conditions: treatment dosage 252 g/ha
Method in brief: as §4

black-grass [20] = assay: Test Example 3: weedkilling efficacy through soil treatment; H: black-grass; conditions: treatment dosage 315 g/ha
Method in brief: as §1

chickweed [21] = assay: Test Example 3: weedkilling efficacy through soil treatment; N: chickweed; conditions: treatment dosage 315 g/ha
Method in brief: as §1

catchweed [22] = assay: Test Example 3: weedkilling efficacy through soil treatment; O: catchweed; conditions: treatment dosage 315 g/ha
Method in brief: as §1

birds-eye speedwell [23] = assay: Test Example 4: weedkilling efficacy by foliar treatment; p: birds-eye speedwell; conditions: treatment dosage 315 g/ha
Method in brief: as §2

wild oat [24] = assay: Test Example 3: weedkilling efficacy through soil treatment; G: wild oat; conditions: treatment dosage 315 g/ha
Method in brief: as §1

soybean [25] = assay: Test Example 3: soil treatment, effect on crop; d: soybean; conditions: treatment dosage 315 g/ha
Method in brief: as §1

Indian mallow [26] = assay: Test Example 3: weedkilling efficacy through soil treatment; K: Indian mallow; conditions: treatment dosage 315 g/ha
Method in brief: as §1

soybean [27] = assay: Test Example 4: foliar treatment, effect on crop; d: soybean; conditions: treatment dosage 315 g/ha
Method in brief: as §2

wheat [28] = assay: Test Example 3: soil treatment, effect on crop; e: wheat; conditions: treatment dosage 315 g/ha
Method in brief: as §1

Indian mallow [29] = assay: Test Example 4: weedkilling efficacy by foliar treatment; K: Indian mallow; conditions: treatment dosage 315 g/ha
Method in brief: as §2

barnyard grass [30] = assay: Test Example 1: weedkilling efficacy, preemergent weed treatment in the submerged state; A: barnyard grass; conditions: treatment dosage 252 g/ha
Method in brief: as §4

catchweed [31] = assay: Test Example 4: weedkilling efficacy by foliar treatment; O: catchweed; conditions: treatment dosage 315 g/ha
Method in brief: as §2

Italian ryegrass [32] = assay: Test Example 3: weedkilling efficacy through soil treatment; I: Italian ryegrass; conditions: treatment dosage 315 g/ha
Method in brief: as §1

beet [33] = assay: Test Example 3: soil treatment, effect on crop; f: beet; conditions: treatment dosage 315 g/ha
Method in brief: as §1

black-grass [34] = assay: Test Example 4: weedkilling efficacy by foliar treatment; H: black-grass; conditions: treatment dosage 315 g/ha
Method in brief: as §2

barnyard grass [35] = assay: Test Example 2: weedkilling efficacy, growth period weed treatment in the submerged state; A: barnyard grass; conditions: treatment dosage 252 g/ha
Method in brief: as §3

wheat [36] = assay: Test Example 4: foliar treatment, effect on crop; e: wheat; conditions: treatment dosage 315 g/ha
Method in brief: as §2

beet [37] = assay: Test Example 4: foliar treatment, effect on crop; f: beet; conditions: treatment dosage 315 g/ha
Method in brief: as §2

fig-leafed goosefoot [38] = assay: Test Example 4: weedkilling efficacy by foliar treatment; M: fig-leafed goosefoot; conditions: treatment dosage 315 g/ha
Method in brief: as §2

What does the source list for CC1=C(c2ccccc2)C(=O)N(C(C)(C)C(=O)Nc2cc(F)ccn2)CO1 [B-2-25]?
M (fig-leafed goosefoot) weedkilling efficacy grade (fig-leafed goosefoot [1]): 4 (weed kill ratio 70% or more, less than 90%); N (chickweed) weedkilling efficacy grade (chickweed [2]): 4 (weed kill ratio 70% or more, less than 90%); L (redroot pigweed) weedkilling efficacy grade (redroot pigweed [3]): 3 (weed kill ratio 40% or more, less than 70%); C (oval-leafed pondweed) weedkilling efficacy grade (oval-leafed pondweed [4]): 5 (weed kill ratio 90% or more, (practically complete withering)); G (wild oat) weedkilling efficacy grade (wild oat [5]): 5 (weed kill ratio 90% or more, (practically complete withering)); b (directly sown rice) effect on crop grade (directly sown rice [6]): 5 (weed kill ratio 90% or more, (practically complete withering)); E (green foxtail) weedkilling efficacy grade (green foxtail [7]): 5 (weed kill ratio 90% or more, (practically complete withering)); a (transplanted rice) effect on crop grade (transplanted rice): 2 (weed kill ratio 20% or more, less than 40%); B (bulrush) weedkilling efficacy grade (bulrush [8]): 5 (weed kill ratio 90% or more, (practically complete withering)); c (corn) effect on crop grade (corn [9]): 3 (weed kill ratio 40% or more, less than 70%); b (directly sown rice) effect on crop grade (directly sown rice [10]): 5 (weed kill ratio 90% or more, (practically complete withering)); I (Italian ryegrass) weedkilling efficacy grade (Italian ryegrass [11]): 5 (weed kill ratio 90% or more, (practically complete withering)); D (crabgrass) weedkilling efficacy grade (crabgrass [12]): 5 (weed kill ratio 90% or more, (practically complete withering)); c (corn) effect on crop grade (corn [13]): 3 (weed kill ratio 40% or more, less than 70%); L (redroot pigweed) weedkilling efficacy grade (redroot pigweed [14]): 2 (weed kill ratio 20% or more, less than 40%); E (green foxtail) weedkilling efficacy grade (green foxtail [15]): 5 (weed kill ratio 90% or more, (practically complete withering)); B (bulrush) weedkilling efficacy grade (bulrush [16]): 5 (weed kill ratio 90% or more, (practically complete withering)); D (crabgrass) weedkilling efficacy grade (crabgrass [17]): 5 (weed kill ratio 90% or more, (practically complete withering)); P (birds-eye speedwell) weedkilling efficacy grade (birds-eye speedwell [18]): 5 (weed kill ratio 90% or more, (practically complete withering)); C (oval-leafed pondweed) weedkilling efficacy grade (oval-leafed pondweed [19]): 5 (weed kill ratio 90% or more, (practically complete withering)); H (black-grass) weedkilling efficacy grade (black-grass [20]): 5 (weed kill ratio 90% or more, (practically complete withering)); N (chickweed) weedkilling efficacy grade (chickweed [21]): 4 (weed kill ratio 70% or more, less than 90%); O (catchweed) weedkilling efficacy grade (catchweed [22]): 5 (weed kill ratio 90% or more, (practically complete withering)); P (birds-eye speedwell) weedkilling efficacy grade (birds-eye speedwell [23]): 5 (weed kill ratio 90% or more, (practically complete withering)); G (wild oat) weedkilling efficacy grade (wild oat [24]): 5 (weed kill ratio 90% or more, (practically complete withering)); d (soybean) effect on crop grade (soybean [25]): 0 (weed kill ratio 5% or less (practically no effect)); K (Indian mallow) weedkilling efficacy grade (Indian mallow [26]): 4 (weed kill ratio 70% or more, less than 90%); d (soybean) effect on crop grade (soybean [27]): 3 (weed kill ratio 40% or more, less than 70%); e (wheat) effect on crop grade (wheat [28]): 1 (weed kill ratio 5% or more, less than 20%); K (Indian mallow) weedkilling efficacy grade (Indian mallow [29]): 4 (weed kill ratio 70% or more, less than 90%); A (barnyard grass) weedkilling efficacy grade (barnyard grass [30]): 5 (weed kill ratio 90% or more, (practically complete withering)); O (catchweed) weedkilling efficacy grade (catchweed [31]): 5 (weed kill ratio 90% or more, (practically complete withering)); I (Italian ryegrass) weedkilling efficacy grade (Italian ryegrass [32]): 5 (weed kill ratio 90% or more, (practically complete withering)); f (beet) effect on crop grade (beet [33]): 2 (weed kill ratio 20% or more, less than 40%); H (black-grass) weedkilling efficacy grade (black-grass [34]): 5 (weed kill ratio 90% or more, (practically complete withering)); A (barnyard grass) weedkilling efficacy grade (barnyard grass [35]): 5 (weed kill ratio 90% or more, (practically complete withering)); e (wheat) effect on crop grade (wheat [36]): 0 (weed kill ratio 5% or less (practically no effect)); f (beet) effect on crop grade (beet [37]): 3 (weed kill ratio 40% or more, less than 70%); M (fig-leafed goosefoot) weedkilling efficacy grade (fig-leafed goosefoot [38]): 4 (weed kill ratio 70% or more, less than 90%)
